Holding throughout (experiment): growth of human tumour cells (NCI), 48 h
In test [1] the test system is ACHN renal.
Test [2] relates to BT-549 breast.
For test [3], the system named is CAKI-1 renal.
In test [4] the test system is DU-145 prostate.
In test [5] the test system is HOP-92 NSCLC.
For test [6], the system named is MDA-MB-231 breast.
For test [7], the system named is NCI-H23 lung.
Test [8] deals with NCI-H460 lung.
In test [9] the test system is OVCAR-8 ovarian.
The subject of test [10] is T-47D breast.

Each structure is given as a SMILES string.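 Five compound concentrations were applied to cells in 96-well plates for 48 hours; endpoints were derived by simple linear interpolation of the resulting dose-response curve. The concentration for full growth arrest is given as TGI.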

For ten molecules, TGI results are on record in PubChem BioAssay (NCI).

On to `COC(=O)Cc1c2n(c3ccccc13)C(=O)N1c3ccccc3C(CC(=O)OC)C21` (stereo not given), for which the TGI in test [1] was greater than 100 µM; in test [2], 93.9 µM; in [3], greater than 100 µM; in test [4] it was greater than 100 µM; in test [5], 27.5 µM; in [6] it was 67.3 µM. Also, the TGI is 64.6 µM in test [7], 33.6 µM in test [8], greater than 100 µM in [9] and greater than 100 µM in [10].

On to `Cn1c2ccccc2c2c3c(=O)[nH][nH]c(=O)c3c3c4ccccc4n(C)c3c21`, for which the TGI in [1], in test [2], in test [3], in test [4], in test [5] and in test [6] was greater than 100 µM throughout. The TGI in test [7], in test [8], in [9] and in [10] was greater than 100 µM each time.

On to `COc1ccc2c(c1)CCC(CN1CCN(CCOC(c3ccccc3)c3ccccc3)CC1)C2O` (stereo not given), for which the TGI stood at 25.6 µM in test [1]; 27.1 µM in [2]; 31.5 µM in test [3]; 38.9 µM in test [4]; 28.5 µM in test [5]; 29.7 µM in test [6]. The TGI in test [7] worked out at 28.9 µM; in test [8], 35.8 µM; in [9], 28.9 µM; in test [10], 47.8 µM.

Regarding `O=C1C=CC(=O)c2c(O)c(N3CCN(c4ncccn4)CC3)c(Cl)c(O)c21`, the TGI in [1] worked out at 5.42 µM; in test [2], 3.86 µM; in test [3], 4.4 µM; in [4], 12.9 µM; in test [5], 4.72 µM; in test [6], 3.75 µM. The TGI in test [7] is 4.59 µM; in test [8], greater than 47.6 µM; in test [9], 6.37 µM; in test [10], 5.7 µM.

As to `CO[C@H](C)[C@](O)(C(=O)OCC1=CCN2CC[C@@H](O)[C@H]12)C(C)C`, the TGI in [1], in test [2], in [3], in [4], in [5] and in test [6] was greater than 100 µM in each case. Further, the TGI in test [7], in [8], in [9] and in test [10] was greater than 100 µM in each case.

As for `O=C1CCCC2=C1CC1=C(CCCC1=O)N2c1ccc(-c2ccccc2)cc1`, the TGI in test [1], in test [2], in test [3], in [4], in test [5] and in test [6] was greater than 100 µM in each case. The TGI in test [7], in test [8], in test [9] and in test [10] was greater than 100 µM throughout.

With `C[C@@H](CCO)OC1OC(COC(=O)C(C)(C)C)C(OC(=O)C(C)(C)C)C(OC(=O)C(C)(C)C)C1OC(=O)C(C)(C)C` (stereo not given in full), the TGI in [1] is greater than 100 µM; in test [2], greater than 100 µM; in test [3] it was greater than 100 µM; in [4] it was greater than 100 µM; in test [5], greater than 100 µM; in test [6], 25.9 µM. The TGI in test [7] was greater than 100 µM; in test [8] it was 36.6 µM; in [9] it was greater than 100 µM; in test [10], greater than 100 µM.

Regarding `C=C1C[C@@H]2CC[C@@]34CC5O[C@H]6C(O[C@H]7CC[C@H](CC(=O)O[C@@H]8[C@@H](C)[C@@H]9O[C@@H]%10C[C@]%11(C[C@@H]%12O[C@]%13(C[C@H](C)[C@@H]%14O[C@@H]%15CC(C(COC(C)=O)OC(C)=O)O[C@@H]%15C[C@@H]%14O%13)C[C@H](C)[C@@H]%12O%11)O[C@@H]%10C[C@@H]9O[C@H]8CC8O[C@@H](CC[C@@H]1O2)C[C@@H](C)C8(O)CO)O[C@@H]7[C@@H]6O3)[C@H]5O4` (stereo not given in full), the TGI in [1] was greater than 1 µM; in [2], 0.751 µM; in test [3], greater than 1 µM; in test [4] it was greater than 1 µM; in [5], greater than 1 µM; in test [6] it was greater than 1 µM. Further, the TGI in [7] was 0.997 µM; in [8], greater than 0.955 µM; in test [9], greater than 1 µM; in test [10] it was greater than 0.924 µM.

For the molecule `C[N+]1(CCCCN2c3ccccc3Sc3cc(N=[N+]=[N-])ccc32)CCN(C(=O)CCNC(=O)Cc2ccc(C(=O)c3ccccc3)cc2)CC1`, the TGI in test [1] was 37.2 µM; in test [2] it was greater than 71.4 µM; in [3], 57.5 µM; in [4], 35.1 µM; in [5] it was 40.5 µM; in test [6], 81 µM. The TGI is greater than 82.4 µM in test [7], greater than 74.2 µM in [8], greater than 100 µM in [9] and greater than 76.4 µM in [10].

As to `CN(C)CN1C(=O)/C(=N\n2c(-c3ccncc3)n[nH]c2=S)c2ccccc21`, the TGI in test [1] is greater than 100 µM; in test [2] it was greater than 100 µM; in test [3] it was greater than 100 µM; in [4], 81.6 µM; in test [5] it was greater than 100 µM; in [6], greater than 100 µM. The TGI was greater than 100 µM in test [7], greater than 100 µM in test [8], 65.2 µM in test [9] and greater than 100 µM in [10].
